{
  "source": "patent US20200024278A1",
  "about": "“COMPOSITION COMPRISING ANTIBIOTIC COMPOUND AND AN HETEROCYCLIC COMPOUND AND THEIR USE IN PREVENTING OR TREATING BACTERIAL INFECTIONS” (MUTABILIS, priority 2016, published 2020)",
  "system": "PAE 27853",
  "format": "cell-based, P. aeruginosa",
  "details": "tntbc: Too numerous to be counted",
  "experimental": "Method 4: Determination of the Spontaneous Mutation Frequency of the Compounds Alone and Combined with Antibiotics.\nBacterial isolates (Table 3) were grown overnight at 35° C. on TSA plates (Becton-Dickinson and Company) in ambient air. After 24 h of incubation, isolated bacterial colonies were added to cation-adjusted Mueller-Hinton broth (ca-MHB; Becton-Dickinson and Company) and cultured for approximately 6 h at 35° C. The pre-culture was stopped once bacteria have reached an OD600 nm of 0.5 for 200 μL. The bacterial suspension was centrifuged at 4000 rpm for 20 min. The supernatant was then discarded and the bacterial pellet was dissolved in ca-MHB to obtain 10^9 to 10^10 CFU/mL. Assays including Fosfomycin were supplemented with 25 μg/ml of Glucose-6-phosphate. 100 μL of the adjusted bacterial suspension were spread on agar plates containing different concentrations of the compounds of the present invention alone or combined with an antibacterial (Table 1). The plates were incubated for 24-48 h at 35° C. in ambient air. CFU were numerated on each agar plate containing compound. The number of resistant colonies obtained was divided by the starting inoculum to give the frequency of spontaneous resistance for a given incubation time (24 and 48 h).",
  "note": "Like-named read-outs stand apart in the source and are kept apart here.",
  "data": [
    {"smiles": "O=C(O)c1cn(C2CC2)c2cc(N3CCNCC3)c(F)cc2c1=O", "note": "[CIP, Ciprofloxacin]", "values": [
      {"measurement": "Frequency of spontaneous resistance", "setting": "single agent at 4.MIC", "result": "5.1E−08"},
      {"measurement": "Frequency of spontaneous resistance", "setting": "single agent at 8.MIC", "result": "4.0E−09"}
    ]}
  ]
}
